ChEMBL document CHEMBL1201862, “PubChem BioAssay data set” (2004)
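Briefly, cells in 96-well plates were exposed to five compound concentrations for 48 h, and endpoints were estimated by linear interpolation. GI50 is the concentration that inhibits growth by half.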 Activity calls are given as the source filed them. Cut-off read from the data, not from the text of the source: active = GI50 up to about 1.1 µM and inactive = higher.

Experiments:
Test in all cases: growth of human tumour cells (NCI), 48 h
MCF7 = tested on: MCF7
HCC 2998 = tested on: HCC 2998
UACC-62 = tested on: UACC-62
SNB-19 = tested on: SNB-19
K562 = tested on: K562
NCI-H23 = tested on: NCI-H23
BT-549 = tested on: BT-549
CAKI-1 = tested on: CAKI-1
NCI/ADR-RES = tested on: NCI/ADR-RES
T47D = tested on: T47D
SK-OV-3 = tested on: SK-OV-3
HOP-62 = tested on: HOP-62
MDA-N = tested on: MDA-N
U-251 = tested on: U-251
SF-295 = tested on: SF-295
OVCAR-8 = tested on: OVCAR-8
MDA-MB-231 = tested on: MDA-MB-231
DU-145 = tested on: DU-145
SR = tested on: SR
COLO 205 = tested on: COLO 205

Compound | GI50 (MCF7) | GI50 (HCC 2998) | GI50 (UACC-62) | GI50 (SNB-19) | GI50 (K562) | GI50 (NCI-H23) | GI50 (BT-549) | GI50 (CAKI-1) | GI50 (NCI/ADR-RES) | GI50 (T47D) | GI50 (SK-OV-3) | GI50 (HOP-62) | GI50 (MDA-N) | GI50 (U-251) | GI50 (SF-295) | GI50 (OVCAR-8) | GI50 (MDA-MB-231) | GI50 (DU-145) | GI50 (SR) | GI50 (COLO 205)
CCOC(=O)C(Cc1ccc(N(CCCl)CCCl)cc1)NC(=O)C(Cc1ccccc1)NC(C)=O (stereo not drawn) | 0.163 µM (active) | > 1 µM (active) | 0.136 µM (active) | > 0.38 µM (active) | > 0.279 µM (active) | 0.162 µM (active) | > 0.583 µM (active) | 0.111 µM (active) | > 0.33 µM (active) | 0.157 µM (active) | > 0.296 µM (active) | 0.275 µM (active) | > 0.262 µM (active) | > 0.316 µM (active) | > 0.326 µM (active) | > 0.322 µM (active) | > 0.284 µM (active) | > 0.582 µM (active) | 0.153 µM (active) | 0.213 µM (active)
CC(=O)Nn1cnc(C(=N)C#N)c1N | > 100 µM (inactive) | > 100 µM (inactive) | > 100 µM (inactive) | > 100 µM (inactive) | > 100 µM (inactive) | > 100 µM (inactive) | > 100 µM (inactive) | > 100 µM (inactive) | > 100 µM (inactive) | > 100 µM (inactive) | > 100 µM (inactive) | > 100 µM (inactive) | > 100 µM (inactive) | > 100 µM (inactive) | > 100 µM (inactive) | > 100 µM (inactive) | > 100 µM (inactive) | > 100 µM (inactive) | > 100 µM (inactive) | > 100 µM (inactive)
CCOC(=O)C(Cc1ccc(N(CCCl)CCCl)cc1)NC(=O)C(Cc1ccccc1)NC=O (stereo not drawn) | 0.143 µM (active) | 0.0186 µM (active) | 0.094 µM (active) | 0.421 µM (active) | 0.188 µM (active) | 0.00906 µM (active) | 0.437 µM (active) | 0.0385 µM (active) | 0.338 µM (active) | 0.092 µM (active) | 0.475 µM (active) | 0.274 µM (active) | 0.24 µM (active) | 0.205 µM (active) | 0.257 µM (active) | 0.258 µM (active) | 0.262 µM (active) | 0.139 µM (active) | 0.00811 µM (active) | 0.197 µM (active)
COc1cc(/C=N/N=C2NCCCN2)ccc1O | > 100 µM (inactive) | > 100 µM (inactive) | > 100 µM (inactive) | > 100 µM (inactive) | > 100 µM (inactive) | > 100 µM (inactive) | > 100 µM (inactive) | – | > 100 µM (inactive) | > 100 µM (inactive) | > 100 µM (inactive) | > 100 µM (inactive) | > 100 µM (inactive) | > 100 µM (inactive) | > 100 µM (inactive) | > 100 µM (inactive) | > 100 µM (inactive) | > 100 µM (inactive) | > 100 µM (inactive) | > 100 µM (inactive)
CSc1[nH]nc(N)c1C(=O)Nc1ccc(Cl)cc1 | 84.7 µM (inactive) | 99.8 µM (inactive) | 90.6 µM (inactive) | 66.5 µM (inactive) | 51.3 µM (inactive) | 36.6 µM (inactive) | 89.7 µM (inactive) | 46.2 µM (inactive) | 35.2 µM (inactive) | 58.1 µM (inactive) | > 100 µM (inactive) | – | > 100 µM (inactive) | 92.3 µM (inactive) | – | 40.9 µM (inactive) | > 100 µM (inactive) | 68.5 µM (inactive) | 35.3 µM (inactive) | 99.5 µM (inactive)
CN(C)Cc1cc(C(=O)/C=C/c2ccccc2Cl)cc(CN(C)C)c1O | 9.66 µM (inactive) | 20.2 µM (inactive) | – | 13.9 µM (inactive) | 4.79 µM (inactive) | 14.5 µM (inactive) | 8.51 µM (inactive) | 3.56 µM (inactive) | 12.8 µM (inactive) | > 10 µM (inactive) | – | 8.15 µM (inactive) | 13 µM (inactive) | 13.8 µM (inactive) | 14.6 µM (inactive) | 10.1 µM (inactive) | 12.2 µM (inactive) | 12.3 µM (inactive) | 5.6 µM (inactive) | 4.23 µM (inactive)
CCS(=O)(=O)CCn1cnc2c1c(=O)n(C)c(=O)n2C | > 100 µM (inactive) | > 100 µM (inactive) | > 100 µM (inactive) | > 100 µM (inactive) | > 100 µM (inactive) | > 100 µM (inactive) | > 100 µM (inactive) | > 100 µM (inactive) | > 100 µM (inactive) | > 100 µM (inactive) | – | > 100 µM (inactive) | > 100 µM (inactive) | > 100 µM (inactive) | > 100 µM (inactive) | > 100 µM (inactive) | > 100 µM (inactive) | > 100 µM (inactive) | 0.0318 µM (active) | > 100 µM (inactive)
CC(CC(=O)O)C(C(=O)O)C(=O)O (stereo not drawn) | > 100 µM (inactive) | – | > 100 µM (inactive) | > 100 µM (inactive) | > 100 µM (inactive) | > 100 µM (inactive) | > 100 µM (inactive) | > 100 µM (inactive) | > 100 µM (inactive) | > 100 µM (inactive) | > 100 µM (inactive) | > 100 µM (inactive) | > 100 µM (inactive) | > 100 µM (inactive) | > 100 µM (inactive) | > 100 µM (inactive) | > 100 µM (inactive) | > 100 µM (inactive) | > 100 µM (inactive) | > 100 µM (inactive)
COC(=O)C(C)(Cc1ccc2c(c1)nnn2C(C)=O)NC(C)=O (stereo not drawn) | > 100 µM (inactive) | > 100 µM (inactive) | > 100 µM (inactive) | > 100 µM (inactive) | > 100 µM (inactive) | > 100 µM (inactive) | > 100 µM (inactive) | > 100 µM (inactive) | > 100 µM (inactive) | > 100 µM (inactive) | > 100 µM (inactive) | – | > 100 µM (inactive) | – | > 100 µM (inactive) | > 100 µM (inactive) | > 100 µM (inactive) | > 100 µM (inactive) | > 100 µM (inactive) | > 100 µM (inactive)
CC(=O)CC(=O)Nc1ccc2ccccc2c1 | 74.3 µM (inactive) | – | > 100 µM (inactive) | > 100 µM (inactive) | 46.9 µM (inactive) | 86.9 µM (inactive) | > 100 µM (inactive) | 84.3 µM (inactive) | 67.3 µM (inactive) | 40.2 µM (inactive) | > 100 µM (inactive) | > 100 µM (inactive) | > 100 µM (inactive) | > 100 µM (inactive) | 69.7 µM (inactive) | > 100 µM (inactive) | > 100 µM (inactive) | > 100 µM (inactive) | 51.5 µM (inactive) | 35.5 µM (inactive)
CCOC(=O)c1ccc(C(=O)/C(C#N)=C2\CCCN2C)[nH]1 | > 100 µM (inactive) | > 100 µM (inactive) | > 100 µM (inactive) | > 100 µM (inactive) | > 100 µM (inactive) | > 100 µM (inactive) | > 100 µM (inactive) | > 100 µM (inactive) | > 100 µM (inactive) | > 100 µM (inactive) | – | > 100 µM (inactive) | > 100 µM (inactive) | > 100 µM (inactive) | > 100 µM (inactive) | > 100 µM (inactive) | > 100 µM (inactive) | > 100 µM (inactive) | > 100 µM (inactive) | > 100 µM (inactive)
C=C1CN(C(=O)c2cc3cc(OC)c(OC)c(OC)c3[nH]2)c2cc([N+](=O)[O-])ccc21 | > 100 µM (inactive) | > 100 µM (inactive) | > 100 µM (inactive) | 45.8 µM (inactive) | > 100 µM (inactive) | 65 µM (inactive) | 61.2 µM (inactive) | > 100 µM (inactive) | > 100 µM (inactive) | > 100 µM (inactive) | 33.2 µM (inactive) | – | > 100 µM (inactive) | 19.1 µM (inactive) | – | > 100 µM (inactive) | 17.5 µM (inactive) | > 100 µM (inactive) | > 100 µM (inactive) | > 100 µM (inactive)
CC1(C)N/C(=C\[N+](=O)[O-])C(C)(C)N1O | > 10 µM (inactive) | > 10 µM (inactive) | > 10 µM (inactive) | > 10 µM (inactive) | – | > 10 µM (inactive) | > 10 µM (inactive) | > 10 µM (inactive) | > 10 µM (inactive) | > 10 µM (inactive) | > 10 µM (inactive) | > 10 µM (inactive) | > 10 µM (inactive) | > 10 µM (inactive) | > 10 µM (inactive) | > 10 µM (inactive) | > 10 µM (inactive) | > 10 µM (inactive) | > 10 µM (inactive) | > 10 µM (inactive)
CN(C)CCNC(=O)c1cc(-c2nccn2C)nc2ccccc12 | 70.1 µM (inactive) | > 100 µM (inactive) | > 100 µM (inactive) | > 100 µM (inactive) | > 100 µM (inactive) | > 100 µM (inactive) | 81.1 µM (inactive) | > 100 µM (inactive) | > 100 µM (inactive) | > 100 µM (inactive) | – | 50.8 µM (inactive) | > 100 µM (inactive) | > 100 µM (inactive) | – | > 100 µM (inactive) | > 100 µM (inactive) | > 100 µM (inactive) | > 100 µM (inactive) | > 100 µM (inactive)
S=C1CC(c2ccccc2)Sc2cc(Cl)ccc2N1 (stereo not drawn) | 4.34 µM (inactive) | – | 5.56 µM (inactive) | 10.8 µM (inactive) | 0.64 µM (active) | 5.41 µM (inactive) | 8.79 µM (inactive) | 7.71 µM (inactive) | 3.52 µM (inactive) | 21.6 µM (inactive) | 7.35 µM (inactive) | 5.61 µM (inactive) | 0.661 µM (active) | 4.26 µM (inactive) | 3.45 µM (inactive) | 13.2 µM (inactive) | 7.57 µM (inactive) | > 100 µM (inactive) | 3.44 µM (inactive) | 5.02 µM (inactive)
